Values quoted from earlier work as cited in patent publication US20100152180A1, “4-oxo-4,5-dihydropyrrolo[1,2-A)quinoxaline derivatives as inhibitors of poly(ADP-ribose) polymerase (PARP)” (priority 2006, published 2010).

Tested on: ischemia and reperfusion of the heart or skeletal muscle
Details: rabbits

Row | Structure (SMILES) | reduction in infarct size (single injection 1 mg/kg) | reduction in infarct size in the heart (single injection 10 mg/kg, one minute before occlusion or one minute before reperfusion)
1 | Oc1cccc2c(O)nccc12 [1,5-dihydroxyisoquinoline] | 38-48% | 
2 | NC(=O)c1cccc(N)c1 [3-amino-benzamide] |  | 32-42%
